The values below come from US20220348590A1, “CYCLOOXYGENASE-2 INHIBITORS AND USES THEREOF” (The Board Institute, Inc., priority 2019, published 2022).

Read-outs that look alike come from different tables or passages of the source.

This assay concerns the target T1, human recombinant COX2 (hCOX2) (UniProt P35354).
T1 sequence (P35354 1-604): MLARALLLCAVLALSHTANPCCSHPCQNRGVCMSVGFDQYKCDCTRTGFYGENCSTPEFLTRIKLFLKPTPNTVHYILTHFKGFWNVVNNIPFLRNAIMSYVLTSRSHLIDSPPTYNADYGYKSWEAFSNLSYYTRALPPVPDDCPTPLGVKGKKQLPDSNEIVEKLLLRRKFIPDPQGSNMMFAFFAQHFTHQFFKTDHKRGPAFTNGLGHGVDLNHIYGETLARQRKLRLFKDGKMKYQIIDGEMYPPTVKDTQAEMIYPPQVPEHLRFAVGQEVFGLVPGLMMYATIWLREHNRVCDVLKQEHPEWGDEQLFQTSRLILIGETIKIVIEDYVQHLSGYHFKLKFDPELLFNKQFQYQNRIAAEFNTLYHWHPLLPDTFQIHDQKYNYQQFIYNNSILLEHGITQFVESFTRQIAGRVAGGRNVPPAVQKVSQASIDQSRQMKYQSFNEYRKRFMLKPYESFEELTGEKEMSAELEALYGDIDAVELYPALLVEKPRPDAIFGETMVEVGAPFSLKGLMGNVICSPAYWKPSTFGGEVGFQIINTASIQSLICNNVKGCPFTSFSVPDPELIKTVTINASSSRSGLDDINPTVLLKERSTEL
The assay is described as follows: LCMS-based COX2 enzymatic inhibition assay (PGE2 quantification). Format: biochemical. Also on record: COX2 2 minutes pge2/pge2d4 area ratio Avg; other: 2 minutes; readout pge2/pge2d4 area ratio; average; COX2 2 minutes pge2/pge2d4 area ratio Avg; LLE; average LLE; COX2 2 minutes pge2 area (counts) Avg; readout pge2 area (counts); other: 2 min; "ovine COX2 (oCOX2), human recombinant COX2 (hCOX2)". The following applies: for COX2 2 minutes pge2/pge2d4 area ratio Avg. LLE / COX2 2 minutes pge2 area (counts) Avg. LLE / COX2 10 minutes pge2 area (counts) Avg. LLE: average LLE; for IC50: average. How it is done:
We have adapted a previously reported cyclooxygenase enzymatic assay utilizing LCMS quantification of PGE2 as the product of COX-1 and COX2 catalyzed conversion of arachidonic acid to evaluate the binding properties of newly synthesized ligands [Cao, 2011]. These optimized and miniaturized (384-well plates) LCMS-based COX-1 and COX2 enzymatic assays enabled us to quickly evaluate newly synthesized ligands for COX2 binding affinity and selectivity vs COX-1. Using a shorter ligand-enzyme incubation time in the LCMS assay (2 minutes vs 10 minutes) also permitted us to prioritize ligands with faster binding kinetics. Considering the relatively slow on-rate kinetics of known coxibs, due to their 3-step binding mechanism [Marnett, 2009], we believe that optimizing this critical parameter will be key to the successful development of a COX2 PET tracer. Using these enzymatic assays, we have evaluated>200 newly synthesized ligands against COX2 and >20 ligands against COX-1. Another critical property necessary for a good PET radiotracer is to have low non-specific binding (NSB) to increase the free fraction and maximize the signal to noise ratio. This property can be evaluated using in-vitro protein binding assays, and we have now evaluated>50 newly synthesized ligands in mouse, rat and human plasma protein binding (PPB) assays as well as >15 ligands in a mouse brain protein binding (BPB) assay.
Ovine COX-1 (oCOX-1), ovine COX2 (oCOX2), human recombinant COX2 (hCOX2), arachidonic acid, PGE2, d4-PGD2, and […] (labeled with deuterium atoms at positions 3 and 4) were purchased from Cayman Chemicals (Ann Arbor, Mich.). The cofactors (−)epinephrine and hematin, and the COX inhibitors indomethacin, resveratrol and diclofenac were purchased from Sigma-Aldrich (St. Louis, Mo.). Celecoxib was purchased from 3B PharmaChem International (Wuhan, China). All organic solvents were HPLC grade or better and were purchased from Thermo Fisher (Hanover Park, Ill.). Formic acid was purchased from EMD Chemicals (San Diego, Calif.). Purified water was prepared by using a Millipore Milli-Q purification system (Millipore, Billerica, Mass.). All other chemicals and solvents were ACS reagent grade, unless stated otherwise.
In an Eppendorf tube, 146 μL of 100 mM Tris.HCl (pH 8.0) buffer, 2 μL of 100 μM hematin (co-factor) and 10 μL of 40 mM L-epinephrine (co-factor) were mixed at room temperature. Next, 20 μL of Tris.HCl (pH 8.0) buffer containing 0.2 μg COX2 or 0.1 μg COX-1 (approximately 1 unit of enzyme; 1 unit COX utilizes 1 nmol 02/mg/min at 37° C.) was added, and the solution was incubated at room temperature for 2 min. A 2 μL aliquot of the COX inhibitor in DMSO was added to the enzyme solution and preincubated at 37° C. for 10 min. Negative controls were identical except that 2 μL aliquots of DMSO without inhibitor were used instead.
Each COX reaction was initiated by adding 20 μL of arachidonic acid in Tris.HCl (pH 8.0) buffer to give a final concentration of 5 μM; and the reaction was terminated after 2 min by adding 20 μL of 2.0 M HCl. The surrogate standards d4-PGE2 and d4-PGD2 (10 μL aliquot of 50 ng/mL solution in methanol) were added to correct for errors or degradation during sample handling and for variation in injection volume or instrument response during LC-MS-MS. After 30 min, PGE2, PGD2 and their surrogate standards were extracted from each incubation mixture using 800 μL hexane/ethyl acetate (50:50, v/v). The organic phase was removed, evaporated to dryness, and reconstituted in 100 μL methanol/water (50:50, v/v) for analysis using LC-MS-MS.
The concentration of PGE2 in each sample was measured using LC-MS-MS, and the percent of COX inhibition by each test solution was determined by comparing the amount of PGE2 produced in the experiment with that produced in the negative control incubation. The formation of PGD2 was measured for quality control purposes, since the levels of PGD2 should be proportional to those of PGE2. […]

Where [1] appears, read: 2 minutes, readout pge2/pge2d4 area ratio.
Where [2] appears, read: 2 minutes, readout pge2/pge2d4 area ratio, read-out: COX2 2 minutes pge2/pge2d4 area ratio Avg. IC50.
Setting [3] is: 2 minutes, readout pge2 area (counts).
Where [4] appears, read: 2 minutes, readout pge2 area (counts), read-out: COX2 2 minutes pge2 area (counts) Avg. IC50.
The mark [5] stands for this setting: 10 minutes, readout pge2 area (counts).
Where [6] appears, read: 10 minutes, readout pge2 area (counts), read-out: COX2 10 minutes pge2 area (counts) Avg. IC50.
Setting [7] is: read-out: COX2 2 minutes pge2/pge2d4 area ratio Avg. IC50 (microM), 2 minutes, readout pge2/pge2d4 area ratio.

Take `COc1ncc(OCc2ccoc2)nc1-c1ccc(S(C)(=O)=O)cc1` [Compound 22]: under setting [1], the “COX2 2 minutes pge2/pge2d4 area ratio Avg. LLE” value came to 5.719. Moreover, the IC50 under setting [2] was 0.0112 µM and the IC50 under setting [4] was 0.0112 µM. For the same molecule, under setting [3], the “COX2 2 minutes pge2 area (counts) Avg. LLE” value (from here on “COX2 2 minutes pge2 area”) is on record as 5.729.

Take `COc1ncc(NCc2ccon2)nc1-c1ccc(S(C)(=O)=O)cc1` [Compound 152]: under setting [1], the “COX2 2 minutes pge2/pge2d4 area ratio Avg. LLE” value stood at 6.031. The IC50 by setting is: under setting [2], 0.297 µM; under setting [4], 0.174 µM. The “COX2 2 minutes pge2 area” value under setting [3] was determined as 6.197.

Consider `CS(=O)(=O)c1ccc(-c2cncc(SCc3ccno3)n2)cc1` [Compound 193], for which the “COX2 2 minutes pge2/pge2d4 area ratio Avg. LLE” value under setting [1] is reported as 4.9351. The IC50 was found to be 0.772 µM under setting [2] and 1.09 µM under setting [4]. Besides, the “COX2 2 minutes pge2 area” value under setting [3] was found to be 4.813.

On to `CS(=O)(=O)c1ccc(-c2cnc(C(F)(F)F)c(NCc3cccs3)n2)cc1` [Compound 144], for which the “COX2 2 minutes pge2/pge2d4 area ratio Avg. LLE” value under setting [1] is reported as 3.605. Further, the IC50 reads like this: under setting [2], 0.234 µM; under setting [4], 0.229 µM. Further, the “COX2 2 minutes pge2 area” value under setting [3] was determined as 3.637.

Consider `CS(=O)(=O)c1ccc(-c2cnnc(NCc3cccs3)n2)cc1` [Compound 114], for which the “COX2 2 minutes pge2/pge2d4 area ratio Avg. LLE” value under setting [1] came out at 5.0904. Also, the IC50 runs as follows: under setting [2], 0.104 µM; under setting [4], 0.131 µM. Moreover, the “COX2 2 minutes pge2 area” value under setting [3] is 5.034.

With `C[C@H](Nc1cncc(-c2ccc(S(C)(=O)=O)cc2)n1)c1cccs1` [Compound 109], under setting [1], the “COX2 2 minutes pge2/pge2d4 area ratio Avg. LLE” value is listed as 4.384. Further, the IC50 under setting [2] turned out to be 0.0982 µM, the IC50 under setting [4] was determined as 0.0793 µM and the IC50 under setting [6] is 0.0132 µM. Moreover, the “COX2 2 minutes pge2 area” value under setting [3] amounted to 4.487. In addition, under setting [5], the “COX2 10 minutes pge2 area (counts) Avg. LLE” value (“COX2 10 minutes pge2 area” for short) turned out to be 5.297.

For `CS(=O)(=O)c1ccc(-n2ccc3ccc(C(=O)c4cccs4)nc32)cc1` [Compound 151, [1-(4-methylsulfonylphenyl)pyrrolo[2,3-b]pyridin-6-yl]-(2-thienyl)methanone], the IC50 came to 0.293 µM under setting [2] and 0.233 µM under setting [4].

In the case of `CS(=O)(=O)c1ccc(-c2cnc(C(=O)O)c(NCc3cccs3)n2)cc1` [Compound 261], under setting [1], the “COX2 2 minutes pge2/pge2d4 area ratio Avg. LLE” value worked out at 4.063. The IC50 under setting [2] amounted to 4.55 µM. Besides, the “COX2 2 minutes pge2 area” value under setting [3] is given as 4.034.

Regarding `Cc1ccc(COc2cncc(-c3ccc(S(C)(=O)=O)cc3)n2)s1` [Compound 124], the IC50 by setting is: under setting [2], 0.139 µM; under setting [4], 0.123 µM.

For the molecule `CS(=O)(=O)c1ccc(-c2cncc(OCc3ccc(Cl)s3)n2)cc1` [Compound 4], under setting [1], the “COX2 2 minutes pge2/pge2d4 area ratio Avg. LLE” value was found to be 4.855. The IC50 was found to be 0.006 µM under setting [2] and 0.0141 µM under setting [4]. Also, the “COX2 2 minutes pge2 area” value under setting [3] came out at 4.615.

For the molecule `CS(=O)(=O)c1ccc(-c2cnc(F)c(NCc3cccs3)n2)cc1` [Compound 97], the “COX2 2 minutes pge2/pge2d4 area ratio Avg. LLE” value under setting [1] is reported as 4.517. The IC50 was 0.0757 µM under setting [2] and 0.0581 µM under setting [4]. The “COX2 2 minutes pge2 area” value under setting [3] came out at 4.626.

`CS(=O)(=O)c1ccc(-c2cccc(NCc3ccno3)n2)cc1` [Compound 175]: the “COX2 2 minutes pge2/pge2d4 area ratio Avg. LLE” value under setting [1] was 4.7843. The IC50 stood at 0.508 µM under setting [2] and 0.638 µM under setting [4]. Under setting [3], the “COX2 2 minutes pge2 area” value came out at 4.685.

Consider `CS(=O)(=O)c1ccc(-c2cncc(N3CCOCC3)n2)cc1` [Compound 286], for which the “COX2 2 minutes pge2/pge2d4 area ratio Avg. LLE” value under setting [1] stood at 5.044. Further, under setting [5], the “COX2 10 minutes pge2 area” value is 5.772. In addition, the IC50 runs as follows: under setting [6], 0.974 µM; under setting [7], 5.2 µM.

For `CS(=O)(=O)c1ccc(-c2cnnc(OCc3cccs3)c2)cc1` [Compound 321], the IC50 under setting [7] came to 5.2 µM.

For the molecule `CS(=O)(=O)c1ccc(-c2cncc(SCc3cnco3)n2)cc1` [Compound 226], under setting [1], the “COX2 2 minutes pge2/pge2d4 area ratio Avg. LLE” value is given as 3.47. Besides, the IC50 turned out to be 2.04 µM under setting [2] and 1.79 µM under setting [4]. Further, under setting [3], the “COX2 2 minutes pge2 area” value was determined as 3.565.

For the molecule `Cn1ccc(CNc2cncc(-c3ccc(S(C)(=O)=O)cc3)n2)n1` [Compound 245], under setting [1], the “COX2 2 minutes pge2/pge2d4 area ratio Avg. LLE” value worked out at 4.632. Besides, the IC50 reads like this: under setting [2], 3.16 µM; under setting [4], 3.33 µM. Under setting [3], the “COX2 2 minutes pge2 area” value is given as 4.621.

With `C[C@@H](Nc1cncc(-c2ccc(S(C)(=O)=O)cc2)n1)c1cccs1` [Compound 173], under setting [1], the “COX2 2 minutes pge2/pge2d4 area ratio Avg. LLE” value was 3.7158. In addition, the IC50 by setting is: under setting [2], 0.452 µM; under setting [4], 0.326 µM; under setting [6], 0.0384 µM. Besides, the “COX2 2 minutes pge2 area” value under setting [3] is 3.9817. Further, the “COX2 10 minutes pge2 area” value under setting [5] is 4.808.

Turning to `COc1ncc(NCc2ccncc2)nc1-c1ccc(S(C)(=O)=O)cc1` [Compound 182], the “COX2 2 minutes pge2/pge2d4 area ratio Avg. LLE” value under setting [1] amounted to 5.042. Besides, the IC50 stood at 0.559 µM under setting [2] and 0.415 µM under setting [4]. For the same molecule, under setting [3], the “COX2 2 minutes pge2 area” value is 5.147.

Regarding `CS(=O)(=O)c1ccc(-c2cncc(NCc3ccoc3)c2)cc1` [Compound 174], the IC50 runs as follows: under setting [2], 0.484 µM; under setting [4], 0.481 µM.

With `CS(=O)(=O)c1ccc(-c2cccc(C3CC3c3ccoc3)n2)cc1` (single isomer, unassigned) [Compound 322, 2-[2-(furan-3-yl)cyclopropyl]-6-(4-methanesulfonylphenyl)pyridine], under “read-out: COX2 2 minutes pge2/pge2d4 area ratio Avg. IC50 (microM), 2 minutes, readout pge2/pge2d4 area ratio, 2 min”, the IC50 was found to be 5.2 µM.

For the molecule `Cn1cc(CNc2cncc(-c3ccc(S(C)(=O)=O)cc3)n2)cn1` [Compound 237], the “COX2 2 minutes pge2/pge2d4 area ratio Avg. LLE” value under setting [1] was 4.753. The IC50 came out at 2.56 µM under setting [2] and 2.23 µM under setting [4]. The “COX2 2 minutes pge2 area” value under setting [3] is given as 4.8121.
